Converted amounts (≈) assume the structure as drawn. The source made the active and inactive calls. No cut-off for these calls is given here.
Experiments:
Pseudomonas aeruginosa = experiment: Antimicrobial activity against Pseudomonas aeruginosa ATCC 27853 after 18 to 20 hrs by macrobroth dilution method; assay type: functional
Staphylococcus aureus = experiment: Antimicrobial activity against Staphylococcus aureus ATCC 25923 after 18 to 20 hrs by macrobroth dilution method; assay type: functional
Escherichia coli [1] = experiment: Antimicrobial activity against Escherichia coli ATCC 25922 after 18 to 20 hrs by macrobroth dilution method; assay type: functional
[2] = Toxicity against human RBCs assessed as hemolysis at 100 uM after 1 hr by spectrophotometry; assay type: cell-based, Erythrocyte; details: red blood cells (RBCs), read-out: Activity
Escherichia coli [3] = experiment: Induction of outer membrane permeabilization in Escherichia coli ML-35p at 40 to 100 uM measured every 2 mins by beta-lactamase/nitrocefin hydrolysis assay; assay type: functional, organism-based
Escherichia coli [4] = experiment: Induction of inner membrane permeabilization in Escherichia coli ML-35p at 10 to 100 uM measured every 2 mins by beta-galactosidase/ONPG hydrolysis assay; assay type: functional, organism-based
Escherichia coli [5] = experiment: Induction of outer membrane permeabilization in Escherichia coli ML-35p at 1 uM measured every 2 mins by beta-lactamase/nitrocefin hydrolysis assay; assay type: functional, organism-based
Escherichia coli [6] = experiment: Induction of outer membrane permeabilization in Escherichia coli ML-35p at 10 to 20 uM measured every 2 mins by beta-lactamase/nitrocefin hydrolysis assay; assay type: functional, organism-based
Escherichia coli [7] = experiment: Induction of inner membrane permeabilization in Escherichia coli ML-35p at 1 uM measured every 2 mins by beta-galactosidase/ONPG hydrolysis assay; assay type: functional, organism-based

Molecule | MIC90 (Pseudomonas aeruginosa) | MIC90 (Staphylococcus aureus) | MIC90 (Escherichia coli [1]) | hemolysis at 1 h, 100 µM [2] | Activity (Escherichia coli [3]) | Activity (Escherichia coli [4]) | Activity (Escherichia coli [5]) | Activity (Escherichia coli [6]) | Activity (Escherichia coli [7])
H-SGIQPEQHSS-OH | > 100 µM | > 100 µM | > 100 µM |  |  |  |  |  | 
H-WKSYVRRWRS-OH | > 100 µM | > 100 µM | 64 µM | -0.4% |  |  |  |  | 
H-EQHSSGKSDV-OH | > 100 µM | > 100 µM | > 100 µM |  |  |  |  |  | 
H-WKSYVRRWR-OH | > 100 µM | 64 µM | 64 µM | 1.1% |  |  |  |  | 
H-GKSDVRRWRSRY-OH | > 100 µM | > 100 µM | > 100 µM |  |  |  |  |  | 
CC1(C)S[C@@H]2[C@H](NC(=O)Cc3ccccc3)C(=O)N2[C@H]1C(=O)O [PENICILLIN G] | > 100 µM | 0.125 µM (≈ 0.0418 µg/mL) | > 100 µM |  |  |  |  |  | 
H-WWSYVRRWRSR-OH | > 100 µM | 8 µM | 16 µM | 3.4% | Active | Active | inactive | Active | inactive
GENTAMICIN | 0.35 µM | 0.1 µM | 1 µM |  |  |  |  |  | 
H-WKSDVRRWRSRY-OH | > 100 µM | > 100 µM | 64 µM | 0.3% |  |  |  |  | 
H-WKSYVRRW-OH | > 100 µM | 100 µM | 64 µM | 2% |  |  |  |  | 
H-KKSYVRRWRS-OH | > 100 µM | > 100 µM | > 100 µM | -0.6% |  |  |  |  | 
H-LWGTRSGIQP-OH | > 100 µM | > 100 µM | > 100 µM |  |  |  |  |  | 
H-QLKVDLWGTRSGIQPEQHSSGKSDVRRWRSRY-NH2 [Ixosin-B-amide] | > 100 µM | > 100 µM | 80 µM |  |  |  |  |  | 
H-WKSYVRRWRSR-OH | > 100 µM | 32 µM | 16 µM | -1.2% |  |  |  |  | 
H-QLKVDLWGTR-OH | > 100 µM | > 100 µM | > 100 µM |  |  |  |  |  | 
H-WKSYVRRWRSRY-OH | 100 µM | 32 µM | 16 µM | 1.5% |  |  |  |  | 
